Test results: patent US8481531B2, “Bicyclic heterocyclyl derivatives as FGFR kinase inhibitors for therapeutic use” (Astex Therapeutics Ltd, priority 2009, dated 2013)

Legend:
Ba/F3-TEL-FGFR3 cells = biological target: T1, Ba/F3-TEL-FGFR3 cells (Homo sapiens, UniProt P22607); test: Ba/F3-TEL-FGFR3 cell proliferation assay (Alamar Blue); format: cell-based; conditions: 72 hours; for GI50: read-out: BaF3-TEL-FGFR3 prolif
T1 construct: fused on or other part: P41212 (Transcription factor ETV6)
Protocol: (§1) Ba/F3-TEL-FGFR3 & Ba/F3 (WT) Cell Proliferation Assays
(§2) Stably transfected Ba/F3-TEL-FGFR3 cells were plated out into black 96-well tissue culture plates with clear bottoms in RPMI medium containing 10% FBS and 0.25 mg/ml G418 at a density of 5×10^3 cells/well (200 μl per well). The parental wild-type Ba/F3 cells (DSMZ no.: ACC 300) were plated out into black 96-well tissue culture plates with clear bottoms in RPMI medium containing 10% FBS and 2 ng/ml mouse IL-3 (R&D Systems) at a density of 2.5×10^3 cells/well (200 μl per well). Plates were placed in an incubator overnight before adding the compounds the following day. Dilutions of compounds were made in DMSO starting at 10 mM and were diluted into the wells to give a final DMSO concentration of 0.1% in assay. Compounds were left on the cells for 72 hours before the plates were removed from the incubator and 20 μl of Alamar Blue™ (Biosource) was added to each well. Plates were placed in the incubator for 4-6 hours before reading plates at 535 nm (excitation)/590 nm (emission) on a Fusion plate reader (Packard). Where inhibition is high an IC50 can be determined.

[1] = system: parental wild-type Ba/F3 cells; test: Ba/F3 (WT) cell proliferation assay (Alamar Blue); format: cell-based; conditions: BaF3, 72 hours, read-out: BaF3 WT prolif; for IC50: with mouse IL-3
Protocol: as §1, §2

VEGFR2 = biological target: T2, VEGFR2 (Homo sapiens, UniProt P35968); test: VEGFR2 in vitro kinase inhibitory activity assay (TRF); format: biochemical; conditions: 0.5 μM ATP, 1 hour; read-out: VEGFR2 IC50(μM) or % I
T2 construct: purchased Upstate
Protocol: (§3) FGFR3, VEGFR2 and PDGFR in vitro Kinase Inhibitory Activity Assays
(§4) Enzymes (from Upstate), prepared at 2× final concentration, were incubated with test compounds, biotinylated Flt3 substrate (biotin-VASSDNEYFYVDF) (Cell Signalling Technology Inc.) and ATP in the appropriate assay buffer (Table 1). The reaction was allowed to proceed for 3 hours (FGFR3), 1 hour (VEGFR2, PDGFR-beta) at room temperature on a plate shaker at 700 rpm before being stopped with 35 mM EDTA, pH 8 (FGFR3, VEGFR2) or 55 mM EDTA, pH 8 (PDGFR-beta). 5× detection mix (50 mM HEPES pH 7.5, 0.1% BSA, 11.34 nM Eu-anti-pY (PY20) (PerkinElmer) 74 nM SA-XL665 (Cisbio) for FGFR3, 50 mM HEPES, pH 7.5, 0.1% BSA, 11.34 nM Eu-anti-pY (PY20), 187.5 nM SA-XL665 for VEGFR2 and 50 mM HEPES, pH 7.5, 0.1% BSA, 11.34 nM Eu-anti-pY (PT66) (PerkinElmer), 375 nM SA-XL665 (Cisbio) for PDGFR-beta) was then added to each well and the plate sealed and incubated at room temperature for one hour on a plate shaker at 700 rpm. The plate was then read on a Packard Fusion plate reader or a BMG Pherastar both in TRF mode.

FGFR3 = biological target: T3, FGFR3 (Homo sapiens, UniProt P22607); test: FGFR3 in vitro kinase inhibitory activity assay (TRF); format: biochemical; conditions: 8 μM ATP, 3 hours; read-out: FGFR3 IC50(μM) or % I
T3 construct: purchased Upstate
Protocol: as §3, §4

T2 sequence (P35968 20-1356): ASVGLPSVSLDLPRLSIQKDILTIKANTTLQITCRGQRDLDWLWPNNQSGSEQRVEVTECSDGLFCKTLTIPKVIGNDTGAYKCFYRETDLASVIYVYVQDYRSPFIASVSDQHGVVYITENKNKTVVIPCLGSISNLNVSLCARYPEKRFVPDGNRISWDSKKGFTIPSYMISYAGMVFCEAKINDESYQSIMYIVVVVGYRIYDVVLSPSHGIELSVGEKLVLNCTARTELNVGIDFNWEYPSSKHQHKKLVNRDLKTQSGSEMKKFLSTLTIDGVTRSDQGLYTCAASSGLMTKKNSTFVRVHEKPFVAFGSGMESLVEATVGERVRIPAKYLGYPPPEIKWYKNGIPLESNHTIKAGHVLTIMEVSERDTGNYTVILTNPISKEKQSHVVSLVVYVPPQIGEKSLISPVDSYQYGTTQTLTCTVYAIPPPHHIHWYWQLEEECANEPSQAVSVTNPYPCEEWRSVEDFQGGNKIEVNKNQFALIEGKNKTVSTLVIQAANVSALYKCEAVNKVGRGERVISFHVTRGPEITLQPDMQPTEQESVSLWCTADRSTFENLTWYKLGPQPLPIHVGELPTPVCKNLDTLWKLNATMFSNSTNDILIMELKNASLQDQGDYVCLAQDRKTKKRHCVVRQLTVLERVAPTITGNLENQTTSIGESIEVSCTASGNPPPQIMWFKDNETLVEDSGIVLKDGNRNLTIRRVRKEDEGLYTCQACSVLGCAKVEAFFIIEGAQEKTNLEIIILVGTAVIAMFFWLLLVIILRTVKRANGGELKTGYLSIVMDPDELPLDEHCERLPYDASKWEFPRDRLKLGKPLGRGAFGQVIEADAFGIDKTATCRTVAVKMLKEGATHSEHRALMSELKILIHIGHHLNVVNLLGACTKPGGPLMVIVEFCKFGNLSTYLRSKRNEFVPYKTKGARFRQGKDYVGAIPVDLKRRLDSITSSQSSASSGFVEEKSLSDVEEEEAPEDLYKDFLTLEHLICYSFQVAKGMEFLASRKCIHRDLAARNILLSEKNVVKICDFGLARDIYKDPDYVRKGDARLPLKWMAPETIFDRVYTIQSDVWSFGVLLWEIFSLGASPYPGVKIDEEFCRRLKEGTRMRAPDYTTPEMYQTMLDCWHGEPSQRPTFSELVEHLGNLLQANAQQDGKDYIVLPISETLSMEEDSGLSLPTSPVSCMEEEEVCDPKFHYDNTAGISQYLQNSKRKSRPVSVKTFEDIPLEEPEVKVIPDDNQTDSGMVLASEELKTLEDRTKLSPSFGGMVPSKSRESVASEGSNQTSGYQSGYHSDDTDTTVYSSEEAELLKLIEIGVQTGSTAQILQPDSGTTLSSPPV
T3 sequence (P22607 23-806): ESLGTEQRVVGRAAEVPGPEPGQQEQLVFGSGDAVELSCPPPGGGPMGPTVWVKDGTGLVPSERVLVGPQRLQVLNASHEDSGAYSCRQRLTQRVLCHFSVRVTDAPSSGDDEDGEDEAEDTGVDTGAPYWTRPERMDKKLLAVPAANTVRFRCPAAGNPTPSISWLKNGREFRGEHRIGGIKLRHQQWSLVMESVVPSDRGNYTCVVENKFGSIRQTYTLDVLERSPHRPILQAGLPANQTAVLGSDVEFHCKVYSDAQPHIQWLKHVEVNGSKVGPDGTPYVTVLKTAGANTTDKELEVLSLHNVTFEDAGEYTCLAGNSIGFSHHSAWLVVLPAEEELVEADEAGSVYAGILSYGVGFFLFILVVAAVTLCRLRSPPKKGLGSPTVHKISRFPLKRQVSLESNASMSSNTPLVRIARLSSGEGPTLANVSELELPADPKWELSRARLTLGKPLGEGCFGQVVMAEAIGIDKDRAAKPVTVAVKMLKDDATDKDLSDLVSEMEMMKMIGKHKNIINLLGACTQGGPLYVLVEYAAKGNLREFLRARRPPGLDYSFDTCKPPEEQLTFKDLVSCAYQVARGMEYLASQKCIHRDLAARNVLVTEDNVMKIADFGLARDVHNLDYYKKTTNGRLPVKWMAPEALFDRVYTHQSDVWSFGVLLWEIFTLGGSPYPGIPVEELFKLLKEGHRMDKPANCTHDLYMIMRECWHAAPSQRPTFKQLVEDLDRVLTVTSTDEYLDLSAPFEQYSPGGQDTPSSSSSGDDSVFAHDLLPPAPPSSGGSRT
T1 sequence (P22607 whole entry, change not shown, the tested form may be a part): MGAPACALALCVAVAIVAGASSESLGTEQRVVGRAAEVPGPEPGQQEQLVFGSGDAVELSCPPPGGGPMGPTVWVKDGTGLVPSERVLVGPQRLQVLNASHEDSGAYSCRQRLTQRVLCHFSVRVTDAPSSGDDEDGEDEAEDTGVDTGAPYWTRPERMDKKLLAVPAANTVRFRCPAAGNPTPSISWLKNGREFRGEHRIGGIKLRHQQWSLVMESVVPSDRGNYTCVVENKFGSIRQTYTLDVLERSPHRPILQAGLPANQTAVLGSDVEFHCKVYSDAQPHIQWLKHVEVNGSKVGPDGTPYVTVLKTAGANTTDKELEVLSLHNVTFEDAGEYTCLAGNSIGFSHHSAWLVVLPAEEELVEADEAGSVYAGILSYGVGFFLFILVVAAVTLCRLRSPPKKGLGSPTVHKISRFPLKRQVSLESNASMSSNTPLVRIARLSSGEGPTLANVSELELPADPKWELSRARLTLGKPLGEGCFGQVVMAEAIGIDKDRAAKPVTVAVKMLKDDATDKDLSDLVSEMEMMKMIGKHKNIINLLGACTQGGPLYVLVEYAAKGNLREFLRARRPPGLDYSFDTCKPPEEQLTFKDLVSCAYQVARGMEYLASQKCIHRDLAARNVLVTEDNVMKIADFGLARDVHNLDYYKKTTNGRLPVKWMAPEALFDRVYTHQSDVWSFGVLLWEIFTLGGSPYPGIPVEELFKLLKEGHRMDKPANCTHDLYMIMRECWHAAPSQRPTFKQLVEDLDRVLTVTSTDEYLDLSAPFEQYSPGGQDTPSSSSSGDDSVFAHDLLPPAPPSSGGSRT

O=C(NCC(F)(F)F)Nc1cccc(-c2cnc3cc(C=NOCc4ccncc4)ccn23)c1 [Compound 1-4, 1-(3-{7-[(Pyridin-4-ylmethoxyimino)-methyl]-imidazo[1,2-a]pyridin-3-yl}-phenyl)-3-(2,2,2-trifluoro-ethyl)-urea]
GI50 (Ba/F3-TEL-FGFR3 cells): 0.26 µM | IC50 [1]: 5.3 µM | IC50 (VEGFR2): 0.23 µM | IC50 (FGFR3): 0.014 µM

O=C(NCC(F)(F)F)Nc1cccc(-c2cnc3cc(/C(=N\OCCO)C4CC4)ccn23)c1 [Compound 1-33, 1-[3-(7-{Cyclopropyl-[2-hydroxy-ethoxyimino]-methyl}-imidazo[1,2-a]pyridin-3-yl)-phenyl]-3-(2,2,2-trifluoro-ethyl)-urea]
GI50 (Ba/F3-TEL-FGFR3 cells): 0.25 µM | IC50 [1]: 11 µM | IC50 (VEGFR2): 0.18 µM | IC50 (FGFR3): 0.018 µM

O=C(NCC(F)(F)F)Nc1cccc(-c2cnc3cc(C=NOCCC4CCN(CCO)CC4)ccn23)c1 [Compound 1-49, 1-{3-[7-({2-[1-(2-Hydroxy-ethyl)-piperidin-4-yl]-ethoxyimino}-methyl)-imidazo[1,2-a]pyridin-3-yl]-phenyl}-3-(2,2,2-trifluoro-ethyl)-urea]
GI50 (Ba/F3-TEL-FGFR3 cells): 1.4 µM | inhibition at 3 µM ([1]; Mus musculus): 36% | IC50 (VEGFR2): 0.33 µM | IC50 (FGFR3): 0.019 µM

O=C(NCC(F)(F)F)Nc1cccc(-c2cnc3cc(C=NOc4ncccn4)ccn23)c1 [Compound 1-5, 1-(3-{7-[(Pyrimidin-2-yloxyimino)-methyl]-imidazo[1,2-a]pyridin-3-yl}-phenyl)-3-(2,2,2-trifluoro-ethyl)-urea]
GI50 (Ba/F3-TEL-FGFR3 cells): 2.3 µM | inhibition at 10 µM ([1]; Mus musculus): 10% | IC50 (VEGFR2): 0.877 µM | IC50 (FGFR3): 0.0313 µM

COCCN1CCC(CCON=Cc2ccn3c(-c4cccc(NC(=O)NCC(F)(F)F)c4)cnc3c2)CC1 [Compound 1-48, 1-{3-[7-({2-[1-(2-Methoxy-ethyl)-piperidin-4-yl]-ethoxyimino}-methyl)-imidazo[1,2-a]pyridin-3-yl]-phenyl}-3-(2,2,2-trifluoro-ethyl)-urea]
GI50 (Ba/F3-TEL-FGFR3 cells): 0.6 µM | IC50 [1]: 1.8 µM | IC50 (VEGFR2): 0.4 µM | IC50 (FGFR3): 0.023 µM

CON=C(c1ccn2c(-c3cccc(NC(=O)NCC(F)(F)F)c3)cnc2c1)C1CC1 [Compound 1-24, 1-[3-(7-{Cyclopropyl-methoxyimino-methyl}-imidazo[1,2-a]pyridin-3-yl)-phenyl]-3-(2,2,2-trifluoro-ethyl)-urea]
GI50 (Ba/F3-TEL-FGFR3 cells): 0.26 µM | inhibition at 1 µM ([1]; Mus musculus, % at 1.00 μM): 38% | IC50 (VEGFR2): 0.23 µM | IC50 (FGFR3): 0.015 µM

C/C(=N\OCCOCCO)c1ccn2c(-c3cccc(NC(=O)NCC(F)(F)F)c3)cnc2c1 [Compound 1-46, 1-[3-(7-{1-[2-(2-Hydroxy-ethoxy)-ethoxyimino]-ethyl}-imidazo[1,2-a]pyridin-3-yl)-phenyl]-3-(2,2,2-trifluoro-ethyl)-urea]
GI50 (Ba/F3-TEL-FGFR3 cells): 0.032 µM | inhibition at 10 µM ([1]; Mus musculus): 39% | IC50 (VEGFR2): 0.068 µM | IC50 (FGFR3): 0.0031 µM

COCCO/N=C(\C)c1ccn2c(-c3cccc(NC(=O)NCC(F)(F)F)c3)cnc2c1 [Compound 1-45, 1-[3-(7-{1-[2-Methoxy-ethoxyimino]-ethyl}-imidazo[1,2-a]pyridin-3-yl)-phenyl]-3-(2,2,2-trifluoro-ethyl)-urea]
GI50 (Ba/F3-TEL-FGFR3 cells): 0.048 µM | IC50 [1]: 4 µM | IC50 (VEGFR2): 0.068 µM | IC50 (FGFR3): 0.0041 µM

COCCON=Cc1ccn2c(-c3cccc(NC(=O)NCC(F)(F)F)c3)cnc2c1 [Compound 1-1, 1-(3-{7-[(2-Methoxy-ethoxyimino)-methyl]-imidazo[1,2-a]pyridin-3-yl}-phenyl)-3-(2,2,2-trifluoro-ethyl)-urea]
GI50 (Ba/F3-TEL-FGFR3 cells): 0.21 µM | IC50 [1]: 0.31 µM | IC50 (VEGFR2): 0.635 µM | IC50 (FGFR3): 0.0194 µM

C/C(=N\OCCCO)c1ccn2c(-c3cccc(NC(=O)NCC(F)(F)F)c3)cnc2c1 [Compound 1-47, 1-[3-(7-{1-[3-Hydroxy-propoxyimino]-ethyl}-imidazo[1,2-a]pyridin-3-yl)-phenyl]-3-(2,2,2-trifluoro-ethyl)-urea]
BaF3-TEL-FGFR3 prolif (μM) (Ba/F3-TEL-FGFR3 cells; % at 10.0 μM): 0.000% at | inhibition at 10 µM ([1]; Mus musculus): 63% | IC50 (VEGFR2): 0.051 µM | IC50 (FGFR3): 0.0023 µM

O=C(NCC(F)(F)F)Nc1cccc(-c2cnc3cc(C=NOCCC4CCNCC4)ccn23)c1 [Compound 1-59, 1-(3-{7-[(2-Piperidin-4-yl-ethoxyimino)-methyl]-imidazo[1,2-a]pyridin-3-yl}-phenyl)-3-(2,2,2-trifluoro-ethyl)-urea]
BaF3-TEL-FGFR3 prolif (μM) (Ba/F3-TEL-FGFR3 cells; % at 3.00 μM): 42.0% at | inhibition at 10 µM ([1]; Mus musculus): 11% | IC50 (VEGFR2): 0.33 µM | IC50 (FGFR3): 0.024 µM

Cc1cc(CON=Cc2ccn3c(-c4cccc(NC(=O)NCC(F)(F)F)c4)cnc3c2)no1 [Compound 1-17, 1-(3-{7-[(5-Methyl-isoxazol-3-ylmethoxyimino)-methyl]-imidazo[1,2-a]pyridin-3-yl}-phenyl)-3-(2,2,2-trifluoro-ethyl)-urea]
GI50 (Ba/F3-TEL-FGFR3 cells): 0.23 µM | IC50 [1]: 4.1 µM | IC50 (VEGFR2): 0.66 µM | IC50 (FGFR3): 0.013 µM

CCC(=NO)c1ccn2c(-c3cccc(NC(=O)NCC(F)(F)F)c3)cnc2c1 [Compound 1-26, 1-[3-(7-{1-Hydroxyimino-propyl}-imidazo[1,2-a]pyridin-3-yl)-phenyl]-3-(2,2,2-trifluoro-ethyl)-urea]
GI50 (Ba/F3-TEL-FGFR3 cells): 0.12 µM | inhibition at 10 µM ([1]; Mus musculus): 40% | IC50 (VEGFR2): 0.083 µM | IC50 (FGFR3): 0.0045 µM

O=C(NCC(F)(F)F)Nc1cccc(-c2cnc3cc(C(=NO)C4CCC4)ccn23)c1 [Compound 1-28, 1-[3-(7-{Cyclobutyl-hydroxyimino-methyl}-imidazo[1,2-a]pyridin-3-yl)-phenyl]-3-(2,2,2-trifluoro-ethyl)-urea]
GI50 (Ba/F3-TEL-FGFR3 cells): 0.57 µM | inhibition at 3 µM ([1]; Mus musculus): 43% | IC50 (VEGFR2): 0.33 µM | IC50 (FGFR3): 0.022 µM

O=C(NCC(F)(F)F)Nc1cccc(-c2cnc3cc(C=NOCCOCCO)ccn23)c1 [Compound 1-7, 1-[3-(7-{[2-(2-Hydroxy-ethoxy)-ethoxyimino]-methyl}-imidazo[1,2-a]pyridin-3-yl)-phenyl]-3-(2,2,2-trifluoro-ethyl)-urea]
GI50 (Ba/F3-TEL-FGFR3 cells): 0.42 µM | inhibition at 3 µM ([1]; Mus musculus): 20% | IC50 (VEGFR2): 0.584 µM | IC50 (FGFR3): 0.0185 µM

CN1CCC(NCCCON=Cc2ccn3c(-c4cccc(NC(=O)NCC(F)(F)F)c4)cnc3c2)CC1 [Compound 1-34, 1-[3-(7-{[3-(1-Methyl-piperidin-4-ylamino)-propoxyimino]-methyl}-imidazo[1,2-a]pyridin-3-yl)-phenyl]-3-(2,2,2-trifluoro-ethyl)-urea]
BaF3-TEL-FGFR3 prolif (μM) (Ba/F3-TEL-FGFR3 cells; % at 10.0 μM): 60.0% at | inhibition at 10 µM ([1]; Mus musculus): 0% | IC50 (VEGFR2): 0.26 µM | IC50 (FGFR3): 0.038 µM

N=C(N)Nc1nc(CON=Cc2ccn3c(-c4cccc(NC(=O)NCC(F)(F)F)c4)cnc3c2)cs1 [Compound 1-19, 1-(3-{7-[(2-Guanidino-thiazol-4-ylmethoxyimino)-methyl]-imidazo[1,2-a]pyridin-3-yl}-phenyl)-3-(2,2,2-trifluoro-ethyl)-urea]
GI50 (Ba/F3-TEL-FGFR3 cells): 2.4 µM | IC50 [1]: 5.2 µM | IC50 (VEGFR2): 0.67 µM | IC50 (FGFR3): 0.023 µM

O=C(NCC(F)(F)F)Nc1cccc(-c2cnc3cc(C(=NO)C4CC4)ccn23)c1 [Compound 1-50, 1-[3-(7-{Cyclopropyl-hydroxyimino-methyl}-imidazo[1,2-a]pyridin-3-yl)-phenyl]-3-(2,2,2-trifluoro-ethyl)-urea]
GI50 (Ba/F3-TEL-FGFR3 cells): 0.3 µM | inhibition at 10 µM ([1]; Mus musculus): 62% | IC50 (VEGFR2): 0.23 µM | IC50 (FGFR3): 0.0097 µM

COCCOCCON=Cc1ccn2c(-c3cccc(NC(=O)NCC(F)(F)F)c3)cnc2c1 [Compound 1-2, 1-[3-(7-{[2-(2-Methoxy-ethoxy)-ethoxyimino]-methyl}-imidazo[1,2-a]pyridin-3-yl)-phenyl]-3-(2,2,2-trifluoro-ethyl)-urea]
GI50 (Ba/F3-TEL-FGFR3 cells): 0.29 µM | IC50 [1]: 1.6 µM | IC50 (VEGFR2): 0.885 µM | IC50 (FGFR3): 0.019 µM
